Experimental data: patent publication US11464733B2, “Enema for rectal application” (Dr. Falk Pharma GmbH, priority 2016, dated 2022)

How the values were obtained:
[1] = test system: patients with active ulcerative colitis; experiment: Placebo-controlled double-blind trial: mucosal endoscopy, MMDAI endoscopic finding score; type: in vivo, human; details: for Number of subjects with MMDAI endoscopic finding score 0 / Number of subjects with MMDAI endoscopic finding score 1 / Number of subjects with MMDAI endoscopic finding score 2 / Number of subjects with MMDAI endoscopic finding score 3 / Percentage of subjects with MMDAI endoscopic finding score 0 / Percentage of subjects with MMDAI endoscopic finding score 1 / Percentage of subjects with MMDAI endoscopic finding score 2 / Percentage of subjects with MMDAI endoscopic finding score 3: 2 mg rectal foam twice a day, 20 cases
Experimental: Placebo-controlled randomized double-blind multicenter collaborative parallel group comparison test
(§1) Superiority of the budesonide compared with placebo for mucosal healing as the primary endpoint are investigated for patients with active ulcerative colitis when budesonide 2 mg is rectally administered twice a day for 6 weeks by a double-blind comparative study with placebo as a control, and the safety thereof was investigated.
(§2) Furthermore, the efficacy and safety of administering were investigated, to patients with inflammatory bowel disease who have been administered 1.5 to 2.5 mg of budesonide twice a day for 6 weeks and shown signs of healing but no mucous membrane healing, 1.5 to 2.5 mg of budesonide twice a day for an additional 6 weeks (for a total of 12 weeks) (clinical trial number: Japic CTI—142704).
For the trial, an aerosol with fixed dose injection type for rectal injection (rectal foaming agent) is used as a test drug, in which 25 mL (1.35 g) of white creamy foam containing 2 mg of budesonide is released by one injection. As a remission induction therapeutic agent of ulcerative colitis in active phase where the lesion is confined to the rectum and sigmoid colon, the aerosol for rectal injection is approved in Europe at a dosage and dose of budesonide 2 mg once a day (trade name: Budenofalk 2 mg/dose rectal foam, manufactured by Dr. Falk Pharma GmbH).
The subjects are ulcerative colitis patients in active phase, and are divided into a group administered the test drug twice a day (hereafter, the budesonide-administered group), and a group administered the control drug (hereinafter, the placebo group).
(§3) The test drug or control drug is rectally administered twice a day (once in the morning and once in the evening), after defecation, if possible. The number of injections per dose is one, the administration period is 6 weeks, if no mucous membrane healing occurred (an endoscope view score of 0 points), an administration period of 12 weeks can be used, and the drug is administered until the evening before the evaluation. The dose of budesonide in each group is 4 mg/day for the twice a day group, and 0 mg/day for the placebo group. The subjects with a 12-week administration period included 20 subjects in the budesonide administered group, and 18 subjects in the placebo group.
The score by the doctor was used for the initial test, and after an administration period of 6 weeks, whether the prescription was continued for 6 more weeks or not. The score by the central judgment committee was used as the judgement of effectiveness. […] Furthermore, the change of the endoscope finding score from 6th week to 12th week of each subject of placebo group is shown in Table 2, and the change in the endoscope finding score from 6th week to 12th week of each subject of the budesonide-administered group is shown in Table 3.

[2] = test system: patients with active ulcerative colitis; experiment: Same trial: safety, adverse events; type: in vivo, human
Experimental: as §1, §2, §3

serous cortisol = experiment: Same trial: blood biochemistry check, serous cortisol density; type: in vivo, human
[3] = test system: serous ACTH (adrenocorticotropic hormone); experiment: Same trial: blood biochemistry check, serous ACTH density; type: in vivo, human
acidophilic leucocyte = experiment: Same trial: hematology checks, leukocyte fractionation; type: in vivo, human
[4] = cited from earlier work
[5] = 0 week (before administration), 12-week subjects
[6] = Table 3 total over 6th week scores, of 20
[7] = Table 3 total over 6th week scores, unmeasured listed separately, of 20
[8] = change from 6th to 12th week, 2 mg twice a day, of 20
[9] = 0th week (before prescription), 20 cases analysed
[10] = 12th week (prescription end), 19 cases analysed
[11] = After observation, 20 cases analysed

Compound: CCCC1O[C@@H]2C[C@H]3[C@@H]4CCC5=CC(=O)C=C[C@]5(C)[C@H]4[C@@H](O)C[C@]3(C)[C@]2(C(=O)CO)O1 (mixture of isomers) [Budesonide, (+)-[(RS)-16α,17α-Butylidenedioxy-11β,21-dihydroxy-1,4-pregnadiene-3,20-dione]]
- Number of subjects with MMDAI endoscopic finding score 0 [1, 5]: 0 subjects
- Number of subjects with MMDAI endoscopic finding score 1 [1, 5]: 3 subjects
- Number of subjects with MMDAI endoscopic finding score 2 [1, 5]: 16 subjects
- Number of subjects with MMDAI endoscopic finding score 3 [1, 5]: 1 subjects
- Percentage of subjects with MMDAI endoscopic finding score 0 [1, 5]: (0.0) %
- Percentage of subjects with MMDAI endoscopic finding score 1 [1, 5]: (15.0) %
- Percentage of subjects with MMDAI endoscopic finding score 2 [1, 5]: (80.0) %
- Percentage of subjects with MMDAI endoscopic finding score 3 [1, 5]: (5.0) %
- Percentage with an endoscope view score of 0 in the 12th week, except for non-measured group ([1]; 6/15 examples, placebo 0% (0/13), administration continued for 6 more weeks): 40.0%
- Number of subjects with MMDAI endoscopic finding score 0 ([1]; 6th week, 12-week subjects): 4 subjects
- Number of subjects with MMDAI endoscopic finding score 1 ([1]; 6th week, 12-week subjects): 14 subjects
- Number of subjects with MMDAI endoscopic finding score 2 ([1]; 6th week, 12-week subjects): 2 subjects
- Number of subjects with MMDAI endoscopic finding score 3 ([1]; 6th week, 12-week subjects): 0 subjects
- Percentage of subjects with MMDAI endoscopic finding score 1 ([1]; 6th week, 12-week subjects): (70.0) %
- Number of subjects with MMDAI endoscopic finding score 0 ([1]; 12th week (Table 1)): 6 subjects
- Number of subjects with MMDAI endoscopic finding score 1 ([1]; 12th week (Table 1)): 8 subjects
- Number of subjects with MMDAI endoscopic finding score 2 ([1]; 12th week (Table 1)): 6 subjects
- Number of subjects with MMDAI endoscopic finding score 3 ([1]; 12th week (Table 1)): 0 subjects
- Percentage of subjects with MMDAI endoscopic finding score 0 ([1]; 12th week (Table 1)): (30.0) %
- Percentage of subjects with MMDAI endoscopic finding score 1 ([1]; 12th week (Table 1)): (40.0) %
- Percentage of subjects with MMDAI endoscopic finding score 2 ([1]; 12th week (Table 1)): (30.0) %
- Percentage of subjects with MMDAI endoscopic finding score 3 ([1]; 12th week (Table 1)): (0.0) %
- Number of subjects, 12th week Unmeasured, Total [1, 6]: 5 subjects
- Percentage of subjects, 12th week Unmeasured, Total [1, 6]: (25.0) %
- Number of subjects, endoscope finding score 12th week 0, Total [1, 7]: 6 subjects
- Number of subjects, endoscope finding score 12th week 1, Total [1, 7]: 7 subjects
- Number of subjects, endoscope finding score 12th week 2, Total [1, 7]: 2 subjects
- Number of subjects, endoscope finding score 12th week 3, Total [1, 7]: 0 subjects
- Percentage of subjects, endoscope finding score 12th week 0, Total [1, 7]: (30.0) %
- Percentage of subjects, endoscope finding score 12th week 1, Total [1, 7]: (35.0) %
- Percentage of subjects, endoscope finding score 12th week 2, Total [1, 7]: (10.0) %
- Percentage of subjects, endoscope finding score 12th week 3, Total [1, 7]: (0.0) %
- Number of subjects, endoscope finding score 6th week 0 / 12th week 0 [1, 8]: 0 subjects
- Number of subjects, endoscope finding score 6th week 0 / 12th week 1 [1, 8]: 1 subjects
- Number of subjects, endoscope finding score 6th week 0 / 12th week 2 [1, 8]: 0 subjects
- Number of subjects, endoscope finding score 6th week 0 / 12th week 3 [1, 8]: 0 subjects
- Number of subjects, endoscope finding score 6th week 0 / 12th week Unmeasured [1, 8]: 3 subjects
- Number of subjects, endoscope finding score 6th week 1 / 12th week 0 [1, 8]: 5 subjects
- Number of subjects, endoscope finding score 6th week 1 / 12th week 1 [1, 8]: 6 subjects
- Number of subjects, endoscope finding score 6th week 1 / 12th week 2 [1, 8]: 1 subjects
- Number of subjects, endoscope finding score 6th week 1 / 12th week 3 [1, 8]: 0 subjects
- Number of subjects, endoscope finding score 6th week 1 / 12th week Unmeasured [1, 8]: 2 subjects
- Number of subjects, endoscope finding score 6th week 2 / 12th week 0 [1, 8]: 1 subjects
- Number of subjects, endoscope finding score 6th week 2 / 12th week 1 [1, 8]: 0 subjects
- Number of subjects, endoscope finding score 6th week 2 / 12th week 2 [1, 8]: 1 subjects
- Number of subjects, endoscope finding score 6th week 2 / 12th week 3 [1, 8]: 0 subjects
- Number of subjects, endoscope finding score 6th week 2 / 12th week Unmeasured [1, 8]: 0 subjects
- Number of subjects, endoscope finding score 6th week 3 / 12th week 0 [1, 8]: 0 subjects
- Number of subjects, endoscope finding score 6th week 3 / 12th week 1 [1, 8]: 0 subjects
- Number of subjects, endoscope finding score 6th week 3 / 12th week 2 [1, 8]: 0 subjects
- Number of subjects, endoscope finding score 6th week 3 / 12th week 3 [1, 8]: 0 subjects
- Number of subjects, endoscope finding score 6th week 3 / 12th week Unmeasured [1, 8]: 0 subjects
- Percentage of subjects, endoscope finding score 6th week 0 / 12th week 0 [1, 8]: 0.0%
- Percentage of subjects, endoscope finding score 6th week 0 / 12th week 1 [1, 8]: 5.0%
- Percentage of subjects, endoscope finding score 6th week 0 / 12th week 2 [1, 8]: 0.0%
- Percentage of subjects, endoscope finding score 6th week 0 / 12th week 3 [1, 8]: 0.0%
- Percentage of subjects, endoscope finding score 6th week 0 / 12th week Unmeasured [1, 8]: 15.0%
- Percentage of subjects, endoscope finding score 6th week 1 / 12th week 1 [1, 8]: (30.0) %
- Percentage of subjects, endoscope finding score 6th week 1 / 12th week 3 [1, 8]: (0.0) %
- Percentage of subjects, endoscope finding score 6th week 1 / 12th week Unmeasured [1, 8]: (10.0) %
- Percentage of subjects, endoscope finding score 6th week 2 / 12th week 0 [1, 8]: 5.0%
- Percentage of subjects, endoscope finding score 6th week 2 / 12th week 1 [1, 8]: 0.0%
- Percentage of subjects, endoscope finding score 6th week 2 / 12th week 2 [1, 8]: 5.0%
- Percentage of subjects, endoscope finding score 6th week 2 / 12th week 3 [1, 8]: 0.0%
- Percentage of subjects, endoscope finding score 6th week 2 / 12th week Unmeasured [1, 8]: 0.0%
- Percentage of subjects, endoscope finding score 6th week 3 / 12th week 0 [1, 8]: 0.0%
- Percentage of subjects, endoscope finding score 6th week 3 / 12th week 1 [1, 8]: 0.0%
- Percentage of subjects, endoscope finding score 6th week 3 / 12th week 2 [1, 8]: 0.0%
- Percentage of subjects, endoscope finding score 6th week 3 / 12th week 3 [1, 8]: 0.0%
- Percentage of subjects, endoscope finding score 6th week 3 / 12th week Unmeasured [1, 8]: 0.0%
- Death, severe adverse events or serious adverse event ([2]; 12 week administration): no death, severe adverse events or serious adverse event, were observed
- Tolerability ([2]; budesonide 2 mg, rectal administration twice a day for 6 weeks (so in the source), patients of ulcerative colitis): acceptable
- Manifestation of adverse events as a result of the drug tested ([2]; versus placebo group): couldn't admit between Placebo group
- Manifested frequency of the adverse event ([2]; versus placebo group): higher than in the placebo group
- Serous cortisol: applicable examples (cases below standard value) (serous cortisol; [9]): 0
- Serous cortisol: percentage of cases below standard value (serous cortisol; [9]): 0.0%
- Serous cortisol: percentage of cases below standard value (serous cortisol; 0th week (before prescription), 20 cases analysed, listed as budesonide): 0%
- Serous cortisol density (serous cortisol; 6th week and 12th week versus 0th week (before prescription)): low compared with the 0th week
- Serous cortisol: applicable examples (cases below standard value) (serous cortisol; [10]): 11
- Serous cortisol: percentage of cases below standard value (serous cortisol; [10]): 57.9%
- Serous cortisol: applicable examples (cases below standard value) (serous cortisol; [11]): 2
- Serous cortisol: percentage of cases below standard value (serous cortisol; [11]): 10.0%
- Recovery of subjects with both serous cortisol and serous ACTH density below the standard value in the 12th week (serous cortisol; by the after observation): mostly recovered to within the standard value
- Serous cortisol density after end of administration (serous cortisol; observed for 2-4 weeks after the end of the 12-week administration period): reverting to the value in the 0th week
- Serous ACTH: applicable examples (cases below standard value) [3, 9]: 3
- Serous ACTH: percentage of cases below standard value [3, 9]: 15.0%
- Serous ACTH: applicable examples (cases below standard value) [3, 10]: 8
- Serous ACTH: percentage of cases below standard value [3, 10]: 42.1%
- Serous ACTH: applicable examples (cases below standard value) [3, 11]: 2
- Serous ACTH: percentage of cases below standard value [3, 11]: 10.0%
- Percentage of the acidophilic leucocyte of leukocyte fractionation (acidophilic leucocyte; 4th week to 12th week compared with 0th week and placebo group): decrease
- Other items of hematology and blood biochemistry checks (acidophilic leucocyte; in vivo): no clear fluctuation in other items could be seen
- Solubility in water [4]: low solubility in water
